Experimental data: ChEMBL document CHEMBL1128969, “Design, synthesis and in vitro activities of a series of benzimidazole/benzoxazole glycoprotein IIb/IIIa inhibitors” (Bioorg Med Chem Lett, 1996)

organism: Homo sapiens; assay: In vitro inhibition of platelet aggregation using Human platelet-Rich Plasma; type: functional

Row | Structure (SMILES) | IC50 [µM] | Inhibition [%]
1 | NCc1ccc(Cn2cnc3cc(C(=O)NCCC(=O)O)ccc32)cc1 | 83 | –
2 | NCc1ccc(-c2nc3cc(C(=O)N[C@@H](CC(=O)O)C(=O)NCCc4c[nH]c5ccccc45)ccc3[nH]2)cc1 | 61 | –
3 | O=C(O)CCNC(=O)c1ccc2c(c1)ncn2CCCC1CCNCC1 | 16 | –
4 | NCc1ccc(-c2nc3cc(C(=O)NCCC(=O)O)ccc3[nH]2)cc1 | 100 | –
5 | NCc1ccc(-c2nc3cc(C(=O)N[C@@H](CC(=O)O)C(=O)NCCc4ccccc4)ccc3[nH]2)cc1 | – | 16

Continued by falling IC50, values first:

Row | IC50 [µM] | Structure (SMILES) | Inhibition [%]
6 | 11 | Cc1nc2cc(C(=O)NCCC(=O)O)ccc2n1Cc1ccc(C(=N)N)cc1 | –
7 | 6.8 | N=C(N)c1ccc(Cn2cnc3cc(C(=O)NCCC(=O)O)ccc32)cc1 | –
8 | 0.05 | CCCCOC(=O)N[C@@H](CNC(=O)c1ccc2[nH]c(-c3ccc(C(=N)N)cc3)nc2c1)C(=O)O | –
9 | 0.02 | CCCCOC(=O)N[C@@H](CNC(=O)c1ccc2oc(-c3ccc(C(=N)N)cc3)nc2c1)C(=O)O | –
10 | 0.02 | CCCCOC(=O)N[C@@H](CNC(=O)c1ccc2nc(-c3ccc(C(=N)N)cc3)oc2c1)C(=O)O | –
11 | 0.01 | Cc1ccc(S(=O)(=O)N[C@@H](CNC(=O)c2ccc3nc(-c4ccc(C(=N)N)cc4)oc3c2)C(=O)O)cc1 | –
12 | 0.01 | Cc1ccc(S(=O)(=O)N[C@@H](CNC(=O)c2ccc3oc(-c4ccc(C(=N)N)cc4)nc3c2)C(=O)O)cc1 | –
